One experiment concerns BK channels. The arrangement: method as in PMID 27834847, PMID 14593856. Conditions: cited from earlier work.
The test system of experiment [1] is BK channel subunits α-1 (KCNMA1). Nature of the experiment: Immunocytochemical fluorescence staining of KCNMA1. Conditions: MDA-MB-231 (9.8 µM) and BT-474 (10.3 µM), 24 h, vs vehicle-treated controls. In kind it is cell-based, human. As to the method: Immunocytochemical fluorescent studies were conducted by growing MDA-MB-231 and BT-474 cells mammary cancer cells on 8-chamber culture slides (Becton Dickinson and Company, Franklin Lakes, NJ, USA) at a density of 2 × 10^4 cells/chamber (2 replicates/group), and allowed to attach overnight in complete serum media supplemented with 10% FBS. […] At the end of experiment, cells were washed with pre-cooled PBS, and fixed with acetone, pre-cooled to −20 °C, for 2 min. Fixed cells were then washed with PBS, and blocked with 2% BSA in 10 mM Tris-HCl containing 50 mM NaCl and 0.1% Tween 20, pH 7.4 (TBST) for 1 h at rt. Cells were then incubated with specific primary antibody for BK channel KCNMA1 (1:300) overnight at 4 °C in 2% BSA-TBST. At the end of incubation time, cells were washed five times with pre-cooled PBS, followed by incubation with Alexa-Fluor 594-conjugated secondary antibody (1:5000) in 2% BSA-TBST for 1 h at rt. After final washing for five times with PBS, cells were embedded in Vectashield Mounting Medium with DAPI (Vector Laboratories Inc., Burlingame, CA, USA). Fluorescent images were obtained by using a confocal laser scanning microscope (Carl Zeiss Microimaging Inc., Thornwood, NY, USA). The red color indicates the positive fluorescence staining for BK channel KCNMA1, and the blue color represents MDA-MB-231 cell nuclei counter-stained with DAPI [30]. […]

The subject of a further experiment is MDA-MB-231 cells. The experiment in a line: MTT cell viability assay, MDA-MB-231. In kind it is cell-based, human. The settings on record: MDA-MB-231, MTT, 48 h. How it is done:
(§1) Penitrems were dissolved in dimethyl sulfoxide (DMSO) to provide a final 25 mM stock solution. Proper media were used to prepare penitrems at their final tested doses for each assay. […] The effects of penitrems 1–3 on the proliferation and growth of multiple BC cell lines were evaluated using MTT assay. MDA-MB-231, BT-474, and SK-BR-3 BC cells (ATCC, Manassas, VA, USA) were initially seeded at 1 × 10^4 cells/well (6 replicates/group) in 96-well plates in RPMI-1640 media containing 10% FBS, and allowed to attach overnight. The next day, cells were washed with PBS, divided into different treatment groups, and then given various concentrations of tested penitrems in 0.5% FBS containing media. Viable cell number was calculated after 48 h using the MTT assay.
(§2) To evaluate the effect of penitrems on growth of the human neuronal Schwann CRL 2765 (ATCC, Manassas, VA, USA), cells were plated at a density of 1 × 10^4 cell per well (6-wells/group) in 96-well culture plates using the ATCC-recommended media (Dulbecco’s Modified Eagle’s Medium, DMEM) and allowed to adhere overnight for growth studies, after which each treatment was added, and cells were maintained for 48 h. Similarly, the non-tumorigenic mammary epithelial MCF-12A cells were plated in DMEM/F12 supplemented with 5% horse serum, […], 20 ng/mL EGF, 100 U/mL penicillin, 0.1 mg/mL streptomycin, and […]. Next day, cells were divided into different groups and fed serum-free DMEM media supplemented with experimental treatments or vehicle-treated control media. Viable cell number was determined using the MTT colorimetric assay. The absorbance was measured at λ570 nm on a BioTek Synergy2 microplate reader (BioTek, Winooski, VT, USA). The number of cells per well was calculated against a standard curve prepared at the start of the experiment. The IC50 value for each tested sample was calculated by non-linear regression of log concentration versus the % survival, implemented in GraphPad® PRISM version 5.0 (Graph Pad Software, Inc., La Jolla, CA, USA).
For orientation: Tetrazolium assays rely on reduction of a dye to a coloured formazan, in cell work by metabolically active cells.

Experiment [2] relates to MCF-12A cells (non-tumorigenic human mammary epithelial cells). The experiment in a line: MTT cell viability assay, MCF-12A. The settings on record: 48 h. It is filed as cell-based. How it is done: as §1, §2
For the next experiment, the system named is SK-BR-3 cells. Nature of the experiment: MTT cell viability assay, SK-BR-3. In kind it is cell-based, human. The settings on record: SK-BR-3, MTT, 48 h. As to the method:
as §1, §2

For a further experiment, the system named is TNF-α. Nature of the experiment: Western blot, TNF-α levels in BC cells. In kind it is cell-based, human. Conditions: MDA-MB-231, BT-474, SK-BR-3; 10 µM treatments; vs control. As to the method:
(§3) MDA-MB-231, BT-474, SK-BR-3, Schwann CRL-2765, and MCF-12A cells, were plated at a density of 1 × 10^6 cells/100 mm culture plates. MDA-MB-231, BT-474, and SK-BR-3 were plated in RPMI-1640 media supplemented with 10% FBS, Schwann cells CRL-2765 were plated in DMEM media supplemented with 10% FBS [11], and MCF-12A cells were plated in DMEM/F12 supplemented with ingredients described earlier. Cells were allowed to adhere overnight, then washed twice with PBS, and starved in control or treatment in serum-free medium containing 0.5% FBS for 48 h to synchronize the cells in G1 phase. Afterwards, cells were treated with tested penitrems in serum-free defined media for 24 h. At the end of treatment periods, cells were lysed in RIPA buffer (Qiagen Sciences Inc., Valencia, CA, USA). Protein concentration was determined by the BCA assay (Bio-Rad, Hercules, CA, USA). Equivalent amounts of protein (50 µg) were electrophoresed on SDS-polyacrylamide gels. The gels were then electroblotted onto PVDF membranes. These PVDF membranes were then blocked with 2% BSA in 10 mM Tris-HCl containing 50 mM NaCl and 0.1% Tween 20, pH 7.4 (TBST), and then incubated with specific primary antibodies overnight at 4 °C. […] Western blot quantification analysis was done using Image Lab ^TM Software (Bio-Rad, Hercules, CA, USA) for total protein normalization.

In another experiment the test system is BT-474 cells. The experiment in a line: cells. It is filed as cell-based, human. How it is done: Penitrems were dissolved in dimethyl sulfoxide (DMSO) to provide a final 25 mM stock solution. Proper media were used to prepare penitrems at their final tested doses for each assay. […] The effects of penitrems 1–3 on the proliferation and growth of multiple BC cell lines were evaluated using MTT assay. […] The next day, cells were washed with PBS, divided into different treatment groups, and then given various concentrations of tested penitrems in 0.5% FBS containing media. Viable cell number was calculated after 48 h using the MTT assay.
as §2, with “Similarly,” for “To evaluate the effect of penitrems on growth of the human neuronal Schwann CRL 2765 (ATCC, Manassas, VA, USA), cells were plated at a density of 1 × 10^4 cell per well (6-wells/group) in 96-well culture plates using the ATCC-recommended media (Dulbecco’s Modified Eagle’s Medium, DMEM) and allowed to adhere overnight for growth studies, after which each treatment was added, and cells were maintained for 48 h. Similarly,”

The subject of experiment [3] is BK channel subunits α-1 (KCNMA1). Nature of the experiment: Western blot, BK channel expression in BC cells. In kind it is cell-based, human. Conditions: MDA-MB-231, BT-474, SK-BR-3; 10 µM treatments; vs control. How it is done: as §3
A general note: A western blot detects proteins with antibodies after separation by electrophoresis.

In experiment [4] the test system is human neuronal Schwann cells CRL-2765. Nature of the experiment: MTT cell viability assay, Schwann CRL-2765. It is filed as cell-based. The settings on record: CRL-2765, MTT, 48 h. How it is done:
as §1, §2

The mark [5] stands for this setting: Homo sapiens, BT-474, MTT, 48 h.

Results on four molecules are retold here after PMC5983288, “The Maxi-K (BK) Channel Antagonist Penitrem A as a Novel Breast Cancer-Targeted Therapeutic” (Marine Drugs, 2018).

Usually IC50 stands for the concentration that gives 50% inhibition.

Turning to Penitrem A [Compound 1], in the experiment on BK channels, the BK channels antagonism entry was “potent BK channels antagonist at very low molar concentration”. Moreover, in [1], the “total levels of KCNMA1 (immunofluorescence)” value is “remarkable reduction”. Further, the IC50 is 9.8 µM in the experiment on MDA-MB-231 cells; 33.7 µM in experiment [2]; 15.1 µM in the experiment with SK-BR-3 cells; 10.3 µM in the experiment on BT-474 cells (BT-474, MTT, 48 h); 22.6 µM in [4]. Further, the “total levels of TNF-α” value in the experiment on TNF-α is given as “increased total levels of TNF-α”. Further, in [3], the “total levels of BK channel subunits α-1 (KCNMA1)” value is “greatest reduction”.

`C=C(C)[C@H]1O[C@H]2CC[C@@]3(C)[C@@](O)(CC[C@H]4[C@@H]5OC(C)(C)[C@H]6C[C@@H]7C(=C)Cc8ccc9[nH]c(c5c9c8[C@@]76O)[C@@]43C)[C@]23O[C@@H]3[C@H]1O` [Compound 2, Penitrem E]: the 50% inhibitory concentration (IC50) amounted to 20.3 µM in the experiment with MDA-MB-231 cells (Homo sapiens); 44 µM in experiment [2] (Homo sapiens); 36.7 µM in the experiment on SK-BR-3 cells (Homo sapiens); 31.8 µM with BT-474 cells (setting [5]); 67.8 µM in [4] (Homo sapiens). Moreover, in the experiment on TNF-α, the “total levels of TNF-α” value is “increased total levels of TNF-α in both BT-474 and SK-BR-3 cells”. Also, the “total levels of BK channel subunits α-1 (KCNMA1)” value in [3] is reported as “did not cause changes”.

As for `CS(=O)(=O)CCNCc1ccc(-c2ccc3ncnc(Nc4ccc(OCc5cccc(F)c5)c(Cl)c4)c3c2)o1` [LP, lapatinib, reference compound], the half-maximal inhibitory concentration (IC50) in the experiment with BT-474 cells (Homo sapiens, BT-474, single agent) came to 0.123 µM.

On to `C=C(C)C1OC2CCC3(C)C4(C)c5[nH]c6cc(Cl)c7c8c6c5C(OC(C)(C)C5CC(C(=C)C7)C85O)C4CCC3(O)C23OC3C1OC` (stereo not shown) [Compound 3, 25-O-methylpenitrem A], for which the IC50 was 37.8 µM with MDA-MB-231 cells (Homo sapiens); 78.8 µM in [2] (Homo sapiens); 27.1 µM with SK-BR-3 cells (Homo sapiens); 22.4 µM in the experiment with BT-474 cells (setting [5]); 48.2 µM in [4] (Homo sapiens).
